Among the data in ChEMBL document CHEMBL5465560, “Selectivity Literature for EUbOPEN Chemogenomic Library” (2024) are % of control and % of inhibition values, retold here.

Test [1] deals with Tyrosine-protein kinase BTK (Homo sapiens, UniProt Q06187). Kind of test: Selectivity interaction (ProQinase) EUB0000171b BTK.
Test [2] has as its target T1, Serine/threonine-protein kinase D1 (Homo sapiens) (UniProt Q15139).
T1 sequence (whole entry): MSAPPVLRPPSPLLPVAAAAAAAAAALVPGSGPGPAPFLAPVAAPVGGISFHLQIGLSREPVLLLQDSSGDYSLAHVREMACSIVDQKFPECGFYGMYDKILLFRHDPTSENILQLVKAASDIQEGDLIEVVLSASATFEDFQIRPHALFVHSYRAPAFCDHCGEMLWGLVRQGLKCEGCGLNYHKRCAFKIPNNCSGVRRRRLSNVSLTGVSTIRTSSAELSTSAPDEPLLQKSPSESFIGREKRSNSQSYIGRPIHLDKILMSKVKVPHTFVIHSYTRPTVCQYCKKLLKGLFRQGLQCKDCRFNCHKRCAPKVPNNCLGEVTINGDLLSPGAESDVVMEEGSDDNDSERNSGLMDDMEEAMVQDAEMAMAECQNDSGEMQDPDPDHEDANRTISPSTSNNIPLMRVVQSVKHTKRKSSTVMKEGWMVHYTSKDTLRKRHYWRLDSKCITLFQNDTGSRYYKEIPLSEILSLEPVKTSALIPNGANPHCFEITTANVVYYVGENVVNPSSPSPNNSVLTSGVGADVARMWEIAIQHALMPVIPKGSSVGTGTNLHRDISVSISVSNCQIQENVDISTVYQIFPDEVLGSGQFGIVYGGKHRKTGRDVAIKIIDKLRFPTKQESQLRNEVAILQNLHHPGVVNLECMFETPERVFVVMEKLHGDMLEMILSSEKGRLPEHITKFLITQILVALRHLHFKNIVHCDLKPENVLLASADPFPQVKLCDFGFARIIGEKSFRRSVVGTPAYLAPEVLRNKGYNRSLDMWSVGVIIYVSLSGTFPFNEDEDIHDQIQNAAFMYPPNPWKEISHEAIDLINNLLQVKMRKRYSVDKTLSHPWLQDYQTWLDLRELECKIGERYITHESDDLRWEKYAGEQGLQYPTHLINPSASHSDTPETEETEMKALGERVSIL
The test is described as follows: Selectivity interaction (Ambit KINOMEscan and KiNATiv profiling in Jurkat cells) EUB0000090b PRKD1. The test is classed as cell-based. The note with it: at 1 µM.

The target of test [3] is Dual specificity testis-specific protein kinase 1 (Homo sapiens) (UniProt Q15569). As to conditions: at 10 µM.
In test [4] the target is Serine/threonine-protein kinase WNK1 (Homo sapiens) (UniProt Q9H4A3). The test is described as follows: Selectivity interaction (KinomeScan (DiscoverX)) EUB0001079a WNK1. As to conditions: at 1 µM.
Test [5] has as its target Tyrosine-protein kinase Srms (Homo sapiens) (UniProt Q9H3Y6). The test is described as follows: Selectivity interaction (KinomeScan (DiscoverX)) EUB0000092b SRMS. The note with it: at 10 µM.
Test [6] concerns the target T2, Cyclin-dependent kinase-like 5 (Homo sapiens) (UniProt O76039).
T2 sequence (whole entry): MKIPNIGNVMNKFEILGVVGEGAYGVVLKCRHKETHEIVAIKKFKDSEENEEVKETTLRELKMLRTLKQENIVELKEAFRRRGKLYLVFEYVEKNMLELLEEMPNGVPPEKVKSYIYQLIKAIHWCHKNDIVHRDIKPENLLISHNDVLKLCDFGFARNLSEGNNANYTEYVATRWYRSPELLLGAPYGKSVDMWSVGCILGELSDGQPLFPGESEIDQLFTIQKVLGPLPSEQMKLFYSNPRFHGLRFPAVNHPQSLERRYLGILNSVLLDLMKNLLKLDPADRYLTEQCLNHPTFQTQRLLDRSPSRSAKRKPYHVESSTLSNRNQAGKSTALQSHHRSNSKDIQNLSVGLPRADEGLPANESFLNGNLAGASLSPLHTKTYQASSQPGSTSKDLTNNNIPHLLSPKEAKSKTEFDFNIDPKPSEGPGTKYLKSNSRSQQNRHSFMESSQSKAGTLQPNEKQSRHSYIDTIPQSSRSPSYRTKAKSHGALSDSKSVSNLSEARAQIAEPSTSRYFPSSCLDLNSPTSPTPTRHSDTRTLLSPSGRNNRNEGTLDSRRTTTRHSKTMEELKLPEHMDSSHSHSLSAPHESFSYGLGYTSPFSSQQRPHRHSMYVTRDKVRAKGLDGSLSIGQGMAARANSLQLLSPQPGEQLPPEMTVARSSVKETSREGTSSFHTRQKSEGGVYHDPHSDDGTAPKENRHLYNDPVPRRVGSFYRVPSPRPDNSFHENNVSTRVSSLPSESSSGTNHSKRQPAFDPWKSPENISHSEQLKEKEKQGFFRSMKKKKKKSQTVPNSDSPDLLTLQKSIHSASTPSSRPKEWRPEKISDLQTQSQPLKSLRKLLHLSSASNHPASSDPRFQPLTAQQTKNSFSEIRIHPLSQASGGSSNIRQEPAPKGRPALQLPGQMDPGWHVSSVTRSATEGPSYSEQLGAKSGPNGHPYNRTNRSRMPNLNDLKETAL
Kind of test: Selectivity interaction (KinomeScan (DiscoverX)) EUB0001049a CDKL5. The note with it: at 1 µM.

For test [7], the target named is Casein kinase I isoform gamma-3 (Homo sapiens) (UniProt Q9Y6M4). Kind of test: Selectivity interaction (KinomeScan (DiscoverX)) EUB0000607a CSNK1G3. As to conditions: at 10 µM.
The target in test [8] is T3, Serine/threonine-protein kinase TBK1 (Homo sapiens) (UniProt Q9UHD2).
T3 sequence (whole entry): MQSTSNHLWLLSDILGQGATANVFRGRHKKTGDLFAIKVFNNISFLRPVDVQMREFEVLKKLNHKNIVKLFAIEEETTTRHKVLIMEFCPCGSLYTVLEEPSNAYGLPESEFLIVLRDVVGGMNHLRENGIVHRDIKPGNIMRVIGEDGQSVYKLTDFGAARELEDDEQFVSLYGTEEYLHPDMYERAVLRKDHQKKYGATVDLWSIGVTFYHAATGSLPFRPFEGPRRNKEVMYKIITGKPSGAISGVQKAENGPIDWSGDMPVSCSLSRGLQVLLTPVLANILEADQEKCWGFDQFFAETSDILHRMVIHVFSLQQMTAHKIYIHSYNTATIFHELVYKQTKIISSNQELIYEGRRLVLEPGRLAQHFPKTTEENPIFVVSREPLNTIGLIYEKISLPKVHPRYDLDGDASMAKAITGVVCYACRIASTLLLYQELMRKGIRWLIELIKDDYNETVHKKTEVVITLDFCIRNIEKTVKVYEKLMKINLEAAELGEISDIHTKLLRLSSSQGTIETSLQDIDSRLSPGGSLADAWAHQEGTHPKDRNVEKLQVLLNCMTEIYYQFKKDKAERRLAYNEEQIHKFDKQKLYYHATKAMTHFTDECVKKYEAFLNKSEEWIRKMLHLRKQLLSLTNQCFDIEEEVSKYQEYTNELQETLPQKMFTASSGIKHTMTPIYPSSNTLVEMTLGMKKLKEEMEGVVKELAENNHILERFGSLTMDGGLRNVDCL
Kind of test: Selectivity interaction (ActivX KiNativ screen (ex vivo kinase selectivity in human PBMCs)) EUB0001619a TBK1. The test is classed as cell-based. The note with it: PBMC, at 1 µM.

Chain of Tyrosine-protein kinase BTK (Q06187 whole entry): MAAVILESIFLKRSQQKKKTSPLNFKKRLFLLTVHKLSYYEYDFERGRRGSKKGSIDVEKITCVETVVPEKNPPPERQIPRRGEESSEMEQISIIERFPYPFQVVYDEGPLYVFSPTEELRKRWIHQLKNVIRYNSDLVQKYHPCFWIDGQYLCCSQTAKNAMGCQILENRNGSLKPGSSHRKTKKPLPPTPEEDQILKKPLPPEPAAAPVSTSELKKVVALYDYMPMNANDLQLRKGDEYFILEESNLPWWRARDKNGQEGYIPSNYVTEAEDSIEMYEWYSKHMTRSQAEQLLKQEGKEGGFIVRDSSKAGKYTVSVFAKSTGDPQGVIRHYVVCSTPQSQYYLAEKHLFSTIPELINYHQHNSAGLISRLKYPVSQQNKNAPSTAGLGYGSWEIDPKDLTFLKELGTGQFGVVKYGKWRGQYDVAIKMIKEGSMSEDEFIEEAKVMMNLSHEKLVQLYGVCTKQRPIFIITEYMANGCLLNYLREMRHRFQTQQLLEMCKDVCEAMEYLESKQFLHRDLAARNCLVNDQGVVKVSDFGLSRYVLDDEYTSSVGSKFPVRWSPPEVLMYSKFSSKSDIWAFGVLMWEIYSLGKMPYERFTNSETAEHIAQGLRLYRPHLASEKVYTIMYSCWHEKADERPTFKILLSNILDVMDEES
Chain of Dual specificity testis-specific protein kinase 1 (Homo sapiens) (Q15569 whole entry, looked up): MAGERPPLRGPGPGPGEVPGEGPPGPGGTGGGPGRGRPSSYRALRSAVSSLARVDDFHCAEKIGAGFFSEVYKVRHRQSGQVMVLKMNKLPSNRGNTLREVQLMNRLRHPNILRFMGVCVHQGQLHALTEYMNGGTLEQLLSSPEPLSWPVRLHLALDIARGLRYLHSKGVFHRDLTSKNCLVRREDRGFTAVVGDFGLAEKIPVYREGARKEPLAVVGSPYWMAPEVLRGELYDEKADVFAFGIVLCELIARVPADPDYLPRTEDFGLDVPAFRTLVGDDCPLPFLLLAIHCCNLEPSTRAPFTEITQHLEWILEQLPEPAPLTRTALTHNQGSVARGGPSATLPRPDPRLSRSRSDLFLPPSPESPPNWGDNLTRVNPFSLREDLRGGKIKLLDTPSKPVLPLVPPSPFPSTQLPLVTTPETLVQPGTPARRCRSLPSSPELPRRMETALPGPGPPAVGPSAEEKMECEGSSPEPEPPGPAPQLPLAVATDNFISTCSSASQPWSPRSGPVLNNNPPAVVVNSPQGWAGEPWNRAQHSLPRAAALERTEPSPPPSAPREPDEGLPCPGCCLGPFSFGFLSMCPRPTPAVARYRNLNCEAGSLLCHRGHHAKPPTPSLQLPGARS
Chain of Tyrosine-protein kinase Srms (Homo sapiens) (Q9H3Y6 whole entry): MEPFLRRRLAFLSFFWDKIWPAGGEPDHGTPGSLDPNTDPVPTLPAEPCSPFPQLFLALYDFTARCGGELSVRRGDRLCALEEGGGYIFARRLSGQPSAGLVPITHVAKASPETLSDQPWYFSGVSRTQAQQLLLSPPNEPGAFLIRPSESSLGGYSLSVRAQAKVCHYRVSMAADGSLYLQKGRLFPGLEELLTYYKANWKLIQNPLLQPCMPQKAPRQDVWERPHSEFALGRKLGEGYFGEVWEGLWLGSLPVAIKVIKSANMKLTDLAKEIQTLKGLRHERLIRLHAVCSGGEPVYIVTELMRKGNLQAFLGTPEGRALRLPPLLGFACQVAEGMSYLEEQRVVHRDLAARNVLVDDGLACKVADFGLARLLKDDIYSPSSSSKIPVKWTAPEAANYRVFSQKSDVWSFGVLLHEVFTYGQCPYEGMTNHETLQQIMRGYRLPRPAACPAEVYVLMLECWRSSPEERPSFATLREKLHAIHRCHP
Chain of Casein kinase I isoform gamma-3 (Homo sapiens) (Q9Y6M4 whole entry, looked up, canonical isoform): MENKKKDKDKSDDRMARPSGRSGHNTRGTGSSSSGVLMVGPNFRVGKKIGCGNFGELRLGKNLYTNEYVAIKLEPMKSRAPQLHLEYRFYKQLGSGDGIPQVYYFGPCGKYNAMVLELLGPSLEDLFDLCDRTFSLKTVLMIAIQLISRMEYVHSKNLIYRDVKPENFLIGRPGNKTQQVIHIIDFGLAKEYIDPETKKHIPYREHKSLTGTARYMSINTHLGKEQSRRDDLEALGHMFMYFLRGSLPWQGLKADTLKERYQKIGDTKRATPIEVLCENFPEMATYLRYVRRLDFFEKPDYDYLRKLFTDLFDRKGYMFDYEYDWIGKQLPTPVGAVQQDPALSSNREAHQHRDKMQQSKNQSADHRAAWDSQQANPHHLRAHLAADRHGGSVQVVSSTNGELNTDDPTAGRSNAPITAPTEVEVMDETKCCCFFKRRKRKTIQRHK
Chain of Serine/threonine-protein kinase WNK1 (Homo sapiens) (Q9H4A3 whole entry, looked up): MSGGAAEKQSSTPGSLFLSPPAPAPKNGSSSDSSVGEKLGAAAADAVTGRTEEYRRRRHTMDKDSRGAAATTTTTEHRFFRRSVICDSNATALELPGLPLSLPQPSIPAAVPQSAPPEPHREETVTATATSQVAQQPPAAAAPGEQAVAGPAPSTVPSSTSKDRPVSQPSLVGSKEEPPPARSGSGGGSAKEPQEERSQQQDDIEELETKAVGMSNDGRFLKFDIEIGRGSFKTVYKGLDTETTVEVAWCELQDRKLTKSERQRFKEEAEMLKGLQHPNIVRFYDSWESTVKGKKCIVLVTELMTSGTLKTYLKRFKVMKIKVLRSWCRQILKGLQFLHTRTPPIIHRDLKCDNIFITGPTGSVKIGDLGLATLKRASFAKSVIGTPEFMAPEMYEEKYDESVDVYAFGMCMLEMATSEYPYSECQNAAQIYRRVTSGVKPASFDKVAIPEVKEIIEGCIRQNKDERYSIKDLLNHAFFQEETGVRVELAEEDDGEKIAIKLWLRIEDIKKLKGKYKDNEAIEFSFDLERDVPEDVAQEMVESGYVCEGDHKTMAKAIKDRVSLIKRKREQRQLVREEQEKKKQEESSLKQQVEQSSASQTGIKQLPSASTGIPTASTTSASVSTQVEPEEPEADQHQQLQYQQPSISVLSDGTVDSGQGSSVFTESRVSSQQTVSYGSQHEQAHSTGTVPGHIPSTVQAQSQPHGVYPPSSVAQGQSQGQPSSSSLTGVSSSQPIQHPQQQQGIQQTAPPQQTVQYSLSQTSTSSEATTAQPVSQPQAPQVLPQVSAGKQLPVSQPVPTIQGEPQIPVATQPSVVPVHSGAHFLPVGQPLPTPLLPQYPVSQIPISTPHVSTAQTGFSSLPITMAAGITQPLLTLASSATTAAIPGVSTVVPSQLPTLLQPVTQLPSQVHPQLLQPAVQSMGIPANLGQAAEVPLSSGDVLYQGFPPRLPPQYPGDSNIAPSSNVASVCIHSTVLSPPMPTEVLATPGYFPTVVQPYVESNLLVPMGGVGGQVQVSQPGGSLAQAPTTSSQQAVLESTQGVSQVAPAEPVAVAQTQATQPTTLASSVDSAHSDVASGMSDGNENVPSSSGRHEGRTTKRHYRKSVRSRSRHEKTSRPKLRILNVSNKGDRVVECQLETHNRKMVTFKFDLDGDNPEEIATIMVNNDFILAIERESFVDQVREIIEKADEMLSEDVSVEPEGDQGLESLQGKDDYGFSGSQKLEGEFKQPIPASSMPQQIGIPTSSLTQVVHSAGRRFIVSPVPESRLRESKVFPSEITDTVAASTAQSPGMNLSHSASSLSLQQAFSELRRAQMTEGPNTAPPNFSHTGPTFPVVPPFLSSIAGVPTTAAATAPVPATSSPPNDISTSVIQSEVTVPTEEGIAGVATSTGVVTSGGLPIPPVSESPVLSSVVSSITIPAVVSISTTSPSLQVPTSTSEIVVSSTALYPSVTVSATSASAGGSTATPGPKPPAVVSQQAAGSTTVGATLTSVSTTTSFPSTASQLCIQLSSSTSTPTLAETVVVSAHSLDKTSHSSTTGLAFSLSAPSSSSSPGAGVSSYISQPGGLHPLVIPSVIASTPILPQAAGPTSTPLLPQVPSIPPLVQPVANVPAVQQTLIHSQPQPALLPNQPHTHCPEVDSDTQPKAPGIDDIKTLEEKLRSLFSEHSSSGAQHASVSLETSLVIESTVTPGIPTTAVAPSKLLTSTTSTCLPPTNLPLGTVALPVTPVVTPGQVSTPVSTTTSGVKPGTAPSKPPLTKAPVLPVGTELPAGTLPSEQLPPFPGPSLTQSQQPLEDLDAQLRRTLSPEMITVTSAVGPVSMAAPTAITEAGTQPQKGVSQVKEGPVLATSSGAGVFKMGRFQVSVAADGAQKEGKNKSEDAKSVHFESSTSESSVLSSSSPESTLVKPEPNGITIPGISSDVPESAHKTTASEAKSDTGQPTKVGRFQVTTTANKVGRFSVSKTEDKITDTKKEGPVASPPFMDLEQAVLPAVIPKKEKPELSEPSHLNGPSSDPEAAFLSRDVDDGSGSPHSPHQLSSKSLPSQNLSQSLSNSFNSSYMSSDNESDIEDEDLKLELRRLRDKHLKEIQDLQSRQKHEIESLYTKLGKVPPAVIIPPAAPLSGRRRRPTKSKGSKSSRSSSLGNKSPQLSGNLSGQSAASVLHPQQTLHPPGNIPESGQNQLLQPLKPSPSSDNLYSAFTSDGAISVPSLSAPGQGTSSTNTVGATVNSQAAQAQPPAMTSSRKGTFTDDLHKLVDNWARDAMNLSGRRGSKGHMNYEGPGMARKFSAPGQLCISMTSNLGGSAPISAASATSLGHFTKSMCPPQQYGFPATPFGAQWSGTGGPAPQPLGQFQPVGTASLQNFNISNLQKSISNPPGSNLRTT

In the case of `C=CC(=O)Nc1cccc(C(=O)Nc2ccc(Nc3cc(-c4[nH]c(SC)nc4C)ccn3)cc2)c1`, the % of control in test [1] (at 1 µM) turned out to be 101%; in test [1] (at 5 µM) it was 87%.

Regarding `CN(C)C/C=C/C(=O)Nc1ccc(C(=O)N2CCCC(Nc3ncc(Cl)c(-c4c[nH]c5ccccc45)n3)C2)cc1` (centres undefined), in test [2], the % of control is 31%.

With `CCN(CC)CCCCNc1ncc2cc(-c3cc(OC)cc(OC)c3)c(NC(=O)NC(C)(C)C)nc2n1`, the % of control in test [3] came out at 100%.

In test [4], `Nc1cnc(N2CCc3cc(S(=O)(=O)Nc4c(F)cc(Cl)cc4F)cc(N4CCCC4=O)c32)nc1` [TP-020n] showed a % of control of 100%.

Turning to `CCC(=O)N1CCN(c2ccc(-n3c(=O)ccc4cnc5ccc(-c6cnc7ccccc7c6)cc5c43)cc2C(F)(F)F)CC1`, the % of control in test [5] was determined as 92%.

In test [6], `COc1cc(Nc2nc(C)cc(-c3cnn4nc(OC)ccc34)n2)cc(C(F)(F)F)c1` displayed a % of control of 82%.

For `CNC(=O)Nc1ccc(-c2nc(N3CC4CCC(C3)O4)c3cnn(C4CCC5(CC4)OCCO5)c3n2)cc1`, the % of control in test [7] came to 48%.

Regarding `N#Cc1cccc(-c2c[nH]c3ncnc(N4CCOCC4)c23)c1`, in test [8], the % of inhibition came out at 19%.
